This note sets out measurements from PubChem BioAssay (NCI).

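In this assay, cells in 96-well plates receive the compound at five concentrations for 48 hours. Endpoints are linearly interpolated between the surrounding concentrations. The concentration for 50% growth inhibition is given as GI50. TGI is the concentration that stops growth completely.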

Test systems include IGROV1 ovarian; SK-MEL-28 melanoma; OVCAR-3 ovarian; OVCAR-5 ovarian; MOLT-4 leukemia; U251 CNS; TK-10 renal; MALME-3M melanoma; MCF7 breast; SF-539 CNS.
Common to all, as to experiment: NCI-60 cell line screen, 48 h

Consider `O=C1c2ccc3c4c5ccc(c24)C(=O)N1CCCOCCCCOCCCNCc1ccc(cc1)CNCCCOCCCCOCCCN(C3=O)C5=O`, for which the GI50 in the assay with IGROV1 ovarian is 791 nM; in the assay on SK-MEL-28 melanoma, 894 nM; in the assay with OVCAR-3 ovarian, 766 nM; in the assay on OVCAR-5 ovarian, 944 nM; with MOLT-4 leukemia it was 981 nM; with U251 CNS, 832 nM. For the same compound, the GI50 is 1030 nM in the assay on TK-10 renal, 628 nM with MALME-3M melanoma, 686 nM in the assay on MCF7 breast and 871 nM with SF-539 CNS. Also, the TGI in the assay with IGROV1 ovarian stood at 1.6 µM; in the assay with SK-MEL-28 melanoma it was 1.63 µM; with OVCAR-3 ovarian, 1.79 µM; with OVCAR-5 ovarian, 1.81 µM; with MOLT-4 leukemia, 2.62 µM; with U251 CNS it was 1.64 µM. Further, the TGI in the assay on TK-10 renal was 2.42 µM; in the assay with MALME-3M melanoma, 1.3 µM; in the assay with MCF7 breast, 1.6 µM; in the assay on SF-539 CNS it was 1.64 µM.
For `c1cc(CCN2CCCCC2)ccn1`, the TGI in the assay with IGROV1 ovarian, with SK-MEL-28 melanoma, in the assay on OVCAR-3 ovarian, in the assay on OVCAR-5 ovarian, with MOLT-4 leukemia and in the assay on U251 CNS was greater than 100 µM throughout. The TGI in the assay with TK-10 renal, with MALME-3M melanoma, in the assay on MCF7 breast and with SF-539 CNS was greater than 100 µM throughout.
With `C[C@]12CC[C@@H]3c4ccc(O)cc4CC[C@H]3[C@@H]1CC[C@@H]2NS(=O)(=O)c1cccc(C(F)(F)F)c1`, the GI50 is 5190 nM with IGROV1 ovarian; 5870 nM in the assay with SK-MEL-28 melanoma; 2950 nM with OVCAR-3 ovarian; 4540 nM with OVCAR-5 ovarian; 3200 nM with MOLT-4 leukemia; 3750 nM with U251 CNS. The GI50 in the assay on TK-10 renal is 4050 nM; in the assay on MALME-3M melanoma, 2830 nM; with MCF7 breast, 2720 nM; with SF-539 CNS, 4210 nM. In addition, the TGI in the assay with IGROV1 ovarian stood at 18 µM; in the assay with SK-MEL-28 melanoma, 19.1 µM; in the assay with OVCAR-3 ovarian, 8.6 µM; with OVCAR-5 ovarian, 17.4 µM; with MOLT-4 leukemia it was 16.7 µM; in the assay on U251 CNS, 14.3 µM. Moreover, the TGI with TK-10 renal worked out at 13.3 µM; with MALME-3M melanoma it was 8.65 µM; in the assay with MCF7 breast it was 8.49 µM; in the assay with SF-539 CNS, 16.2 µM.
As to `Cc1nc2sc(C(=O)Nc3cccc4ccccc34)c(N)c2cc1C(=O)/C=C/c1ccccc1`, the GI50 was 301 nM with IGROV1 ovarian; 667 nM with SK-MEL-28 melanoma; 181 nM in the assay with OVCAR-3 ovarian; 813 nM in the assay with OVCAR-5 ovarian; 251 nM in the assay with MOLT-4 leukemia; 236 nM in the assay on U251 CNS. Besides, the GI50 in the assay on TK-10 renal was 1280 nM; with MALME-3M melanoma, 343 nM; in the assay on MCF7 breast it was 201 nM; in the assay on SF-539 CNS it was 265 nM. Besides, the TGI with IGROV1 ovarian was 1.3 µM; in the assay on SK-MEL-28 melanoma, 5.91 µM; with OVCAR-3 ovarian, 0.593 µM; with OVCAR-5 ovarian, 2.61 µM; in the assay with MOLT-4 leukemia, greater than 28.4 µM; with U251 CNS, 1.01 µM. Also, the TGI was 8.88 µM in the assay with TK-10 renal, greater than 34.9 µM with MALME-3M melanoma, greater than 50 µM in the assay with MCF7 breast and 1.16 µM in the assay on SF-539 CNS.
In the case of `Cn1c(=O)c(Oc2ccc(F)cc2F)cc2cnc(NC(CO)CO)nc21`, the GI50 with IGROV1 ovarian, in the assay on SK-MEL-28 melanoma, in the assay with OVCAR-3 ovarian, in the assay with OVCAR-5 ovarian, with MOLT-4 leukemia and in the assay on U251 CNS was greater than 25000 nM in each case. Further, the GI50 in the assay on TK-10 renal, in the assay on MALME-3M melanoma, in the assay with MCF7 breast and in the assay on SF-539 CNS was greater than 25000 nM each time. Also, the TGI in the assay on IGROV1 ovarian, in the assay with SK-MEL-28 melanoma, in the assay with OVCAR-3 ovarian, in the assay on OVCAR-5 ovarian, in the assay on MOLT-4 leukemia and in the assay on U251 CNS was greater than 25 µM in each case. Besides, the TGI in the assay with TK-10 renal, with MALME-3M melanoma, in the assay with MCF7 breast and in the assay with SF-539 CNS was greater than 25 µM throughout.
